Laboratory results from patent US20230416412A1, “PREVENTION OR MITIGATION OF T-CELL ENGAGING AGENT-RELATED ADVERSE EFFECTS” (Hoffmann-La Roche Inc., priority 2022, published 2023).

Experiments:
[1] = tested on: CD4+ and CD8+ T cells; assay: Whole blood assay: CD20-TCB-induced T cell activation, CD25 expression (flow cytometry); type: cell-based, human; conditions: 10 μM NLRP3 inhibitor, 24 hrs
Method: (§1) FIGS. 1A-1N. Effect of the NLRP3 inhibitor on CD20-TCB-mediated T cell activation, B cell depletion and cytokine release. Fresh whole blood from a healthy donor (donor 1) was incubated with escalating doses of CD20-TCB and 10 μM NLRP3 inhibitor. At 24 hrs, blood from technical replicates was pooled and lysed. FIG. 1A. The killing of CD19+ B cells was measured by flow cytometry. FIG. 1B and FIG. 1C. The expression of CD25 on CD4+ (1B) and CD8+ (1C) T cells was measured by flow cytometry. At 24 hrs, serum from technical replicates were collected and pooled. FIG. 1D-FIG. 1N. The levels of IFN-γ (1D), IL-2 (1E), IL-1β (1F), IL-1Ra (1G), TNF-α (1H), IP-10 (1I), IL-6 (1J), IL-8 (1K), MCP-1 (1L), MIP-1α (1M) and MIP-1β (1N) were measured by Luminex.
(§2) FIGS. 2A-2N. Effect of the NLRP3 inhibitor on CD20-TCB-mediated T cell activation, B cell depletion and cytokine release. Fresh whole blood from a healthy donor (donor 2) was incubated with escalating doses of CD20-TCB and 10 μM NLRP3 inhibitor. At 24 hrs, blood from technical replicates was pooled and lysed. FIG. 2A. The killing of CD19+ B cells was measured by flow cytometry. FIG. 2B and FIG. 2C. The expression of CD25 on CD4+ (FIG. 2B) and CD8+ (FIG. 2C) T cells was measured by flow cytometry. At 24 hrs, serum from technical replicates were collected and pooled. FIG. 2D-FIG. 2N. The levels of IFN-γ (2D), IL-2 (2E), IL-1β (2F), IL-1Ra (2G), TNF-α (2H), IP-10 (2I), IL-6 (2J), IL-8 (2K), MCP-1 (2L), MIP-1α (2M) and MIP-1β (2N) were measured by Luminex.
(§3) FIGS. 3A-3N. Effect of the NLRP3 inhibitor on CD20-TCB-mediated T cell activation, B cell depletion and cytokine release. Fresh whole blood from a healthy donor (donor 3) was incubated with escalating doses of CD20-TCB and […] NLRP3 inhibitor. At 24 hrs, blood from technical replicates was pooled and lysed. FIG. 3A. The killing of CD19+ B cells was measured by flow cytometry. FIG. 3B and FIG. 3C. The expression of CD25 on CD4+ (3B) and CD8+ (3C) T cells was measured by flow cytometry. At 24 hrs, serum from technical replicates were collected and pooled. FIG. 3D-FIG. 3N. The levels of IFN-γ (3D), IL-2 (3E), IL-1β (3F), IL-1Ra (3G), TNF-α (3H), IP-10 (3I), IL-6 (3J), IL-8 (3K), MCP-1 (3L), MIP-1α (3M) and MIP-1β (3N) were measured by Luminex.
(§4) To assess the effects of the NLRP3 inhibitor on TCB-mediated target cell killing and T cell activation, we conducted whole blood assays using fresh whole blood from 3 healthy donors incubated with escalating concentrations of CD20-TCB (SEQ ID NOs 4-23) in combination with 10 μM of the NLRP3 inhibitor (MCC950, Sigma-Aldrich). At 24 hrs, the killing of CD19+ B cells together with the expression of CD25 on CD4+ and CD8+ T cells was measured in whole blood by flow cytometry.

[2] = Body weight change after first CD20-TCB therapy; type: in vivo, humanized NSG mice; conditions: before and after the first CD20-TCB treatment, 20 mg/kg NLRP3 inhibitor i.p.
Method: FIG. 7. Effect of the NLRP3 inhibitor on body weight loss induced by the first CD20-TCB therapy. Treatment was performed as described in FIG. 4. The body weight of each animal was measured before and after the first therapy with CD20-TCB to calculate body weight change [%]. Means+/−SEM.
The effects of the NLRP3 inhibitor on anti-tumor efficacy and cytokine release mediated by CD20-TCB in vivo were evaluated using a diffused large B cell lymphoma (DLBCL) tumor model in humanized NSG mice. Briefly, humanized NSG mice were engrafted with OCI-LY18 tumor cells. When the tumor volume reached 200 mm^3, mice were randomized in groups of 14 based on their tumor size. […]
The levels of cytokines were measured in serum collected by tail-vein bleedings 3 hrs after the first treatment with CD20-TCB to determine the effects of the NLRP3 inhibitor on CD20-TCB-mediated cytokine release in vivo. […] In addition, the NLRP3 inhibitor modified the cytokine profile induced by CD20-TCB treatment, as indicated by the heat map showing the levels of IFN-γ, IL-2, TNF-α, […], IL-1Ra, IL-6, IL-8, MCP-1, MIP-1α and […] which were measured 3 hrs after the first treatment with CD20-TCB (FIG. 6). Last, we measured the body weight of each animal before and after the first treatment with CD20-TCB to calculate the body weight change. […]

[3] = tested on: OCI-LY18 tumor cells; assay: Anti-tumor efficacy of CD20-TCB in DLBCL tumor model in humanized NSG mice; type: in vivo; conditions: 20 mg/kg NLRP3 inhibitor i.p.
Method: FIGS. 4A-4B. Effect of the NLRP3 inhibitor on CD20-TCB-mediated anti-tumor efficacy. OCI-Ly18-bearing humanized NSG mice were pre-treated with 30 mg/kg obinutuzumab (Gazyva® pre-treatment, Gpt, dotted black arrow) and then treated with escalating doses of CD20-TCB (black arrows, 0.5 mg/kg on the 1st treatment, 1 mg/kg on the 2nd treatment and 2 mg/kg on the 3rd treatment) by intravenous (i.v.) injections. 20 mg/kg NLRP3 inhibitor (grey arrows) was given by intraperitoneal injections 1 hr before, 4 hrs and 24 hrs after the 1st CD20-TCB therapy as well as 1 hr before and 4 hrs after the 2nd CD20-TCB therapy. FIG. 4A. Tumor growth inhibition curves, means−/+SD. Tumor volumes were calculated from caliper measurements conducted 2 or 3 times per week. FIG. 4B. […] Tumors were digested and the counts of CD8+ T cells were measured by flow cytometry.
The effects of the NLRP3 inhibitor on anti-tumor efficacy and cytokine release mediated by CD20-TCB in vivo were evaluated using a diffused large B cell lymphoma (DLBCL) tumor model in humanized NSG mice. […]
To assess the effects of the NLRP3 inhibitor on tumor growth, tumor volumes were calculated from caliper measurements twice or three times per week. Furthermore, the counts of CD8+ T cells were measured by flow cytometry in tumors collected 24 hrs after the third treatment with CD20-TCB.

[4] = tested on: cytokine release in whole blood; assay: Whole blood assay: CD20-TCB-mediated cytokine release, serum cytokines by Luminex; type: cell-based, human
Method: as §1, §2, §3, §4
The levels of cytokines were measured by Luminex in the serum of whole blood treated with CD20-TCB in the presence and in the absence of the NLRP3 inhibitor to determine the effects of the NLRP3 inhibitor on cytokine release.

[5] = tested on: CD19+ B cells; assay: Whole blood assay: CD20-TCB-induced killing of CD19+ B cells (flow cytometry); type: cell-based, human; conditions: 10 μM NLRP3 inhibitor, escalating CD20-TCB, fresh whole blood of 3 healthy donors, 24 hrs
Method: as §1
FIGS. 2A-2N. Effect of the NLRP3 inhibitor on CD20-TCB-mediated T cell activation, B cell depletion and cytokine release. […] The killing of CD19+ B cells was measured by flow cytometry. […] The expression of CD25 on CD4+ (FIG. 2B) and CD8+ (FIG. 2C) T cells was measured by flow cytometry. […] The levels of IFN-γ (2D), IL-2 (2E), IL-1β (2F), IL-1Ra (2G), TNF-α (2H), IP-10 (2I), IL-6 (2J), IL-8 (2K), MCP-1 (2L), MIP-1α (2M) and MIP-1β (2N) were measured by Luminex.
FIGS. 3A-3N. […] The killing of CD19+ B cells was measured by flow cytometry. […] The expression of CD25 on CD4+ (3B) and CD8+ (3C) T cells was measured by flow cytometry. […]

[6] = tested on: cytokine release; assay: CD20-TCB-mediated cytokine release in vivo, serum cytokines by Luminex; set-up: species or system humanized NSG mice; conditions: 3 hrs after first CD20-TCB treatment
Method: FIGS. 5A-5E. Effect of the NLRP3 inhibitor on IL-2, IFN-γ, TNF-α, IL-1β, and IL-6 induced by CD20-TCB. Treatment was performed as described in FIG. 4. Blood was collected by tail-vein bleedings 3 hrs after the 1st CD20-TCB therapy. The levels of FIG. 5A. IL-2, FIG. 5B. IFN-γ, FIG. 5C. TNF-α, FIG. 5D. IL-1β, and FIG. 5E. IL-6 were measured in the serum by Luminex. Means of n=5 mice+/−SEM.
FIG. 6. Heatmap representing the effects of the NLRP3 inhibitor on CD20-TCB mediated cytokine release. Treatment was performed as described in FIG. 4. Blood was collected by tail-vein bleeding 3 hrs after the 1st CD20-TCB therapy. The levels of IFN-γ, IL-2, TNF-α, IP-10, IL-1β, IL-1Ra, IL-6, IL-8, MCP-1, MIP-1α and MIP-1β were measured in serum by Luminex for n=5 mice per group.
The effects of the NLRP3 inhibitor on anti-tumor efficacy and cytokine release mediated by CD20-TCB in vivo were evaluated using a diffused large B cell lymphoma (DLBCL) tumor model in humanized NSG mice. Briefly, humanized NSG mice were engrafted with OCI-LY18 tumor cells. When the tumor volume reached 200 mm^3, mice were randomized in groups of 14 based on their tumor size. They were then pre-treated with 30 mg/kg obinutuzumab (Gazyva® pre-treatment, GpT) 7 days before being treated with CD20-TCB to deplete peripheral B cells. The NLRP3 inhibitor was given 1 hr before and 4 and 24 hrs after the first CD20-TCB treatment as well as 1 hr before and 4 hrs after the second CD20-TCB treatment.
The levels of cytokines were measured in serum collected by tail-vein bleedings 3 hrs after the first treatment with CD20-TCB to determine the effects of the NLRP3 inhibitor on CD20-TCB-mediated cytokine release in vivo. In line with previous in vitro findings, the NLRP3 inhibitor retained IL-2, IFN-γ, TNF-α while reducing IL-6, IL-8 and IL-1β levels induced by CD20-TCB (FIGS. 5A-E, FIG. 6). In addition, the NLRP3 inhibitor modified the cytokine profile induced by CD20-TCB treatment, as indicated by the heat map showing the levels of IFN-γ, IL-2, TNF-α, […], IL-1Ra, IL-6, IL-8, MCP-1, MIP-1α and […] which were measured 3 hrs after the first treatment with CD20-TCB (FIG. 6). Last, we measured the body weight of each animal before and after the first treatment with CD20-TCB to calculate the body weight change. […] (FIG. 7).

[7] = 10 μM NLRP3 inhibitor with CD20-TCB, whole blood serum, 24 hrs, 3 donors
[8] = 10 μM NLRP3 inhibitor with CD20-TCB, whole blood serum, 24 hrs, in all 3 donors

In the case of `CC(C)(O)c1coc(S(=O)(=O)NC(=O)Nc2c3c(cc4c2CCC4)CCC3)c1` [NLRP3 inhibitor, MCC950], the “T cell activation induced by CD20-TCB” value [1] is reported as “did not interfere”, the “T cell activation induced by CD20-TCB” value ([1]; listed as MCC950) is reported as “retaining” and the “expression of the activation marker CD25 on CD4+ T cells” value ([1]; escalating CD20-TCB, 3 donors) is reported as “did not prevent”. The “expression of the activation marker CD25 on CD8+ T cells” value ([1]; escalating CD20-TCB, 3 donors) was “did not prevent”, the “body weight loss induced by CD20-TCB” value [2] was “prevented body weight loss” and the “anti-tumor efficacy mediated by CD20-TCB (tumor volume)” value ([3]; obinutuzumab pre-treatment, CD20-TCB 0.5, 1, 2 mg/kg i.v. weekly) was “did not interfere”. The “CD8+ T cell infiltration in tumors” value ([3]; 24 hrs after the third CD20-TCB treatment, flow cytometry) was “did not interfere”, the “level of IFN-γ” value [4, 7] was “did not influence” and the “level of IL-1Ra” value [4, 7] was “did not influence”. For the same compound, the “level of IL-2” value [4, 7] was “did not influence”, the “level of IP-10” value [4, 7] was “did not influence” and the “level of MCP-1” value [4, 7] was “did not influence”. The “level of MIP-1α” value [4, 7] was “did not influence”, the “level of MIP-1β” value [4, 7] was “did not influence” and the “level of TNF-α” value [4, 7] was “did not influence”. For the same compound, the “level of IL-6” value ([4]; 10 μM NLRP3 inhibitor with CD20-TCB, whole blood serum, 24 hrs, in 2 out of 3 donors) was “reduced”, the “level of IL-1β” value [4, 8] was “reduced” and the “level of IL-8” value [4, 8] was “reduced”. For the same compound, the TCB-induced cytokine release ([4]; general statement) was “reduce”, the “CD20-TCB-induced B cell depletion (percentage of CD19+ B cells among CD45+ cells)” value [5] was “minimally interfered” and the “CD20-TCB-induced B cell depletion (percentage of CD19+ B cells among CD45+ cells)” value ([5]; listed as MCC950) was “retaining”. For the same compound, the “serum IFN-γ level induced by CD20-TCB” value ([6]; 20 mg/kg NLRP3 inhibitor i.p.) was “retained”, the “serum IL-1β level induced by CD20-TCB” value ([6]; 20 mg/kg NLRP3 inhibitor i.p.) was “reducing” and the “serum IL-2 level induced by CD20-TCB” value ([6]; 20 mg/kg NLRP3 inhibitor i.p.) was “retained”. For the same compound, the “serum IL-6 level induced by CD20-TCB” value ([6]; 20 mg/kg NLRP3 inhibitor i.p.) was “reducing”, the “serum IL-8 level induced by CD20-TCB” value ([6]; 20 mg/kg NLRP3 inhibitor i.p.) was “reducing” and the “serum TNF-α level induced by CD20-TCB” value ([6]; 20 mg/kg NLRP3 inhibitor i.p.) was “retained”. For the same compound, the “cytokine profile induced by CD20-TCB treatment (heat map)” value ([6]; 11 cytokines in serum) was “modified”.
